Entries after “also recorded” stand apart in the source; their conditions may differ.
What was measured:
[1] = molecular target: T1, A1 AR (Homo sapiens, UniProt P30542); assay: Radioligand membrane binding assay at the A1 AR with [3H]R-PIA
T1 sequence (P30542 1-326): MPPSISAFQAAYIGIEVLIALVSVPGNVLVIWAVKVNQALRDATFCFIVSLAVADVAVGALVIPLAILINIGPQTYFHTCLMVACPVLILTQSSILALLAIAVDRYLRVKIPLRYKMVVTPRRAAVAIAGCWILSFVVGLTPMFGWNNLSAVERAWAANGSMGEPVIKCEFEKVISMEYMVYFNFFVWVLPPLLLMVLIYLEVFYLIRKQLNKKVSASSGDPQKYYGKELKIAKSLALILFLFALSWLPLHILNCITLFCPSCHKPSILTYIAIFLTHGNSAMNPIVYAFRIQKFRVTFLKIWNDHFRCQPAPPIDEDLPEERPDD

[2] = molecular target: T2, A3 AR (Homo sapiens, UniProt P0DMS8); assay: Radioligand membrane binding assay at the A3 AR with [125I]AB-MECA
T2 sequence (P0DMS8 1-318): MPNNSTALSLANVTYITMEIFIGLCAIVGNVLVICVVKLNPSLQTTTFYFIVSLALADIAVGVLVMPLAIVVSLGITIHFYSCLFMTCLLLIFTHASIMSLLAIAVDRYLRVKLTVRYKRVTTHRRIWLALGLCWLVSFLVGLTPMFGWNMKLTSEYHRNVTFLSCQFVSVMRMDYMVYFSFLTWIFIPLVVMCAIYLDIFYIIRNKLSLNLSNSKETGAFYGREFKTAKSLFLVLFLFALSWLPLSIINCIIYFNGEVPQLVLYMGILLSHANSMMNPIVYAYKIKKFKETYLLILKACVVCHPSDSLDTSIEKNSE

[3] = molecular target: T3, A2B AR (Homo sapiens, UniProt P29275); assay: Cyclic AMP accumulation assay, CHO cells expressing the A2B AR; assay type: cell-based; conditions: at 10 μM
T3 sequence (P29275 1-332): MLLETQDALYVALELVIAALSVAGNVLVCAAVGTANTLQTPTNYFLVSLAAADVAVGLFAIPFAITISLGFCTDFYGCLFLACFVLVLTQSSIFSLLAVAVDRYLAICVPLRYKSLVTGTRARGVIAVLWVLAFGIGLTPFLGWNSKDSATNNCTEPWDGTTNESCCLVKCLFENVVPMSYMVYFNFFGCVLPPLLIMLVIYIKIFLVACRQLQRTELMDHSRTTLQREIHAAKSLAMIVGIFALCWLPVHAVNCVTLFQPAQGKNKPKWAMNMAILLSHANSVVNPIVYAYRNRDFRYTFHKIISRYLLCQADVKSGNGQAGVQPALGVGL

[4] = molecular target: A2AAR (Homo sapiens, UniProt P29274); assay: Cyclic AMP accumulation assay, CHO cells expressing the A2AAR; conditions: CGS21680-induced cyclic AMP accumulation in CHO cells expressing the A2AAR
Sequence of A2AAR (Homo sapiens, UniProt P29274) (P29274 whole entry): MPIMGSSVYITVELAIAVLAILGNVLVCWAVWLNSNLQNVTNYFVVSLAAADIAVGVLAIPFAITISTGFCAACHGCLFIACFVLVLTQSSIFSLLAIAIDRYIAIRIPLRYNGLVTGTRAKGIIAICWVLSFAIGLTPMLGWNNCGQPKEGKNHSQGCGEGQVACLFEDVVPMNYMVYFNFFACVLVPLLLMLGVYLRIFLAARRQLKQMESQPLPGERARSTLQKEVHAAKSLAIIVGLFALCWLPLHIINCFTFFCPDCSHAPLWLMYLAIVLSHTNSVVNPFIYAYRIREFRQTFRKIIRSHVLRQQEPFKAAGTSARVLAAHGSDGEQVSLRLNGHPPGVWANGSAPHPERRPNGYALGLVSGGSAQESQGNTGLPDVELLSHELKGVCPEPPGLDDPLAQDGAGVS

[5] = molecular target: A2AAR; conditions: read-out: Ki, radioligand binding; reported values; ref [1], [27], [28], [29]; cited from earlier work

Row | effect on A1 AR in binding ([1]; at 10 μM) | inhibition at 10 µM ([1]; read-out: inhibition of radioligand binding at A1 AR) [%] | effect on A3 AR in binding ([2]; at 10 μM) | inhibition at 10 µM ([2]; read-out: inhibition of radioligand binding at A3 AR) [%] | SMILES | effect on NECA-induced cyclic AMP accumulation [3] | functional activity in cyclic AMP assay at the A2AAR [4] | Ki [5] [nM]
1 | did not show any effect | 4.6 ± 1.9 | did not show any effect | 3.8 ± 2.1 | N=c1ccc2c(-c3ccc(C(=O)NCCNC(=O)COc4ccc(CCCn5ncc6c5nc(N)n5nc(-c7ccco7)nc65)cc4)cc3C(=O)O)c3ccc(N)c(S(=O)(=O)O)c3oc-2c1S(=O)(=O)O [MRS5346, 5-((2-(2-(4-(3-(5-amino-2-(furan-2-yl)-7H-pyrazolo[4,3-e][1,2,4]triazolo[1,5-c]pyrimidin-7-yl)propyl)phenoxy)acetamido)-ethyl)-carbamoyl)-2-(6-amino-3-iminio-4,5-disulfonato-3H-xanthen-9-yl)benzoate] | did not show any effect; also recorded: did not inhibit | antagonist; also recorded: inhibited cyclic AMP accumulation | 
2 |  |  |  |  | OC[C@H]1O[C@@H](n2cnc3c(NC4CCCC4)ncnc32)[C@H](O)[C@@H]1O [CPA] |  |  | 794
